Assay results reported in publication PMC5843698, “Use of QSPR Modeling to Characterize In Vitro Binding of Drugs to a Gut-Restricted Polymer” (Pharmaceutical Research, 2018).
“Also recorded” adds a separate entry of the source. Structures can show the parent of a compound that is named as a salt.

Assays:
[1] = In vitro binding assay: free test drug recovered after 3 h incubation with and without patiromer in SGF, acetate buffer or SIF; settings: for SGF / SIF / AB: QSPR input data; for SGF: test matrix SGF; for SIF: test matrix SIF; for AB: test matrix acetate buffer (AB); for In Vitro Binding (% Drug Recovered) Acetate Buffer (pH 4.5) / In Vitro Binding (% Drug Recovered) SGF (pH 3) / In Vitro Binding (% Drug Recovered) SIF (pH 5.9): patiromer 25.2 g/L, 3 h, 37°C, geometric mean of 12 replicates; for Binding categories (level of in vitro interaction with patiromer): across SGF, AB and SIF test matrices; for In Vitro Binding (% Drug Recovered) SGF (pH 3): simulated gastric fluid, final pH 3.0; for In Vitro Binding (% Drug Recovered) SIF (pH 5.9): simulated intestinal fluid, final pH 5.9; for In vitro patiromer binding category: strong, weak or non-binding
[2] = test drug given together with patiromer, healthy volunteers; a drug listed in the table cell = AUC reduced; cited from earlier work
[3] = logP determination by titration in octanol/water; settings: octanol/water
[4] = pKa determination by titration in aqueous solution (UV or pH monitored); settings: aqueous solution, average of three determinations
[5] = logD determination (liquid-liquid distribution chromatography, octanol-coated column); settings: octanol-coated column with octanol-saturated mobile phase
[6] = Dose-response in vitro patiromer binding across a range of test drug concentrations; settings: across a clinically relevant dose range

SMILES	SGF [1]	SIF [1]	AB [1]	In Vitro Binding (% Drug Recovered) Acetate Buffer (pH 4.5) [1] [%]	Binding categories (level of in vitro interaction with patiromer) [1]	In Vitro Binding (% Drug Recovered) SGF (pH 3) [1] [%]	In Vitro Binding (% Drug Recovered) SIF (pH 5.9) [1] [%]	In vitro patiromer binding category [1]	AUC reduced when co-administration (lower bound of the 90% CI <80%) [2]	Behaviour of drug in the presence of patiromer and its calcium counter-ion ([1]; in vitro binding assay conditions)	logP [3]	pKa ([4]; pKa (B = base), basic group)	chromatographic logD ([5]; pH 3)	chromatographic logD ([5]; pH 4.5)	chromatographic logD ([5]; pH 5.9)	Concentration dependence of in vitro binding to patiromer [6]	pKa ([4]; pKa (A = acid), acidic group)
CN(C)C(=N)N=C(N)N [Metformin HCl]	48.9	80.2	81.8	81.8	Weak binder (30–55% bound in one test matrix)	48.9	80.2	weak binder	moderate reduction in AUC; also recorded: Metformin, 1000 mg	–	–	–	–	–	–	–	–
N[C@@H](Cc1cc(I)c(Oc2cc(I)c(O)c(I)c2)c(I)c1)C(=O)O [Levothyroxine sodium]	–	–	–	–	–	–	–	–	Ciprofloxacin, 500 mg Levothyroxine, 0.6 mg	precipitated in the presence of patiromer and its calcium counter-ion	3.44	8.73	3.44	3.44	3.37	–	–
Cc1ncc(C[n+]2csc(CCO)c2C)c(N)n1 [Thiamin]	–	–	–	50.7	–	28.8	42.9	–	–	–	< -1.5	4.88	< -1.5	< -1.5	< -1.5	–	–
COc1cc(Cc2cnc(N)nc2N)cc(OC)c1OC [Trimethoprim]	36.3	28.4	55.3	55.3	–	36.3	28.4	strong binders	–	–	–	–	–	–	–	did not show strong concentration dependence	–
O=C1NC(=O)C(c2ccccc2)(c2ccccc2)N1 [Phenytoin sodium]	83.4	92.8	90.2	90.2	No binding (<30% drug bound in any test matrix)	83.4	92.8	–	–	–	2.43	–	2.43	2.43	2.43	–	8.18
C[C@@H](NCCCc1cccc(C(F)(F)F)c1)c1cccc2ccccc12 [Cinacalcet HCl]	13.4	18.3	19.3	19.3	–	13.4	18.3	Strong patiromer binding	–	–	5.58	8.85	2.41	2.44	2.83	–	–
C=C[C@H]1C[N@@]2CC[C@H]1C[C@@H]2[C@@H](O)c1ccnc2ccc(OC)cc12 [Quinidine]	12.6	24.3	–	–	–	12.6	24.3	strong binders	–	–	–	–	–	–	–	did not show strong concentration dependence	–
COC(=O)[C@H](c1ccccc1Cl)N1CCc2sccc2C1 [Clopidogrel bisulfate]	66	–	–	–	Weak binder (30–55% bound in one test matrix)	66	–	Weak binders	–	–	4.06	4.66	2.4	3.67	4.03	–	–
Oc1ncnc2[nH]ncc12 [Allopurinol]	85.7	94.2	90.1	90.1	No binding (<30% drug bound in any test matrix)	85.7	94.2	–	–	–	-0.3	–	-0.3	-0.3	-0.3	–	9.18
